Reference: patent US20240180868A1, “PHARMACEUTICAL COMPOSITION FOR PREVENTION OR TREATMENT OF VIRUS INFECTION, THE PHARMACEUTICAL COMPOSITION COMPRISING ROTTLERIN AS ACTIVE INGREDIENT” (QVET, priority 2021, published 2024)

Experiments:
[1] = system: PRRSV; test: PRRSV protein expression, fluorescent immunostaining of nucleocapsids; format: cell-based; conditions: 10 μM; 48 hours after inoculation
Experimental: To evaluate the inhibitory effect of rottlerin or rottlerin liposomes against PRRSV protein expression, the cells were treated with 5 μM rottlerin liposomes and 10 μM rottlerin, and 48 hours after inoculation, fluorescent immunostaining was performed using primary antibody for PRRSV nucleocapsids and Alexa 488 secondary antibody.

[2] = system: PRRSV FL12; test: PRRSV animal model, 4-week-old pigs, intranasal spray; format: in vivo; conditions: 1 mg intranasal
Experimental: Validity assessment for target animals were performed using 4-week-old pigs. A total of 15 pigs were used, and randomly distributed into a positive PRRSV FL12 administration group, a rottlerin liposome 100 μg administration group (R-L 100 μg), a rottlerin liposome 1 mg administration group (R-L 1 mg), and a rottlerin raw material 1 mg administration group (R 1 mg), wherein four animals were used for each group (three animals were used for the rottlerin liposome 100 μg administration group).
The pigs of each group were inoculated with 10^5 TCID50/ml FL12, and after the inoculation, 2 ml of each therapeutic agent was intranasally administered by spray.
Sera were separated from the pigs on days 1, 3, 7, 14, and 19, and the pigs were euthanized and necropsied on day 19 of inoculation. The lung tissue of each pig was collected and lesions were evaluated, thereby calculating lung lesion scores. […]
Microscopic lung lesions were measured from 0 to 4 according to the degree of interstitial pneumonia as follows: (0, no lesions; 1, mild lesions or less than half being lesions; 2, common lesions or half being lesions; 3, moderately spread lesions or more than half being lesions; 4, severe lesions or full lesions). […]

`CC(=O)c1c(O)c(C)c(O)c(Cc2c(O)c3c(c(C(=O)/C=C/c4ccccc4)c2O)OC(C)(C)C=C3)c1O` [rottlerin] was tested, and the “PRRSV virus proteins detected by fluorescent immunostaining” value [1] was “virus proteins were not detected”, the clinical symptom score ([2]; scored daily 0 to 6) was “significant decrease in clinical symptom score on days 8, 16, 17, and 18” and the “area under curve (AUC) of viremia, qRT-PCR” value ([2]; vs FL12 group, p≤0.05) was “significantly lower”.
